Reference: patent US20150164910A1, “ANTIVIRAL COMPOUNDS AND METHODS OF USE” (The Regents of the University of Califonia, priority 2012, published 2015)

What was measured:
CVB3-H3 = test: Plaque reduction assay, CVB3-H3 in HeLa-RW cells; type: cell-based, coxsackievirus B3; conditions: compound added 30 min before infection, CVB3-H3 MOI 1, HeLa-RW, 6 hours; log10(titer with DMSO only/titer with inhibitor)
[1] = system: eGFP-expressing recombinant CVB3; type: cell-based, coxsackievirus B3; conditions: for % of eGFP + cells, 0 Hr: compound added 0 hr post infection at its peak activity concentration, DMSO 26.0; for % of eGFP + cells, 0 Hr / % of eGFP + cells, 1 Hr / % of eGFP + cells, 2 Hr: read 6 hr post infection; for % of eGFP + cells, 1 Hr: compound added 1 hr post infection at its peak activity concentration, DMSO 23.7; for % of eGFP + cells, 2 Hr: compound added 2 hr post infection at its peak activity concentration, DMSO 24.8; for Inhibition of infected cells: eGFP-CVB3 m.o.i=1, compound added at time of infection, 6 hr post infection, 1-(% eGFP+ cells with compound/% with DMSO only)
coxsackievirus B3 (CVB3) = test: Cell viability assay, prevention of cell death caused by CVB3 infection; type: cell-based; conditions: for Selectivity index: 50% Cytotoxic concentration/50% activity concentration; for IC50 / EC (peak activity): Enterovirus B; for IC50: read-out: 50% activity concentration (IC50); for EC (peak activity): HeLa-RW cells and CVB3 at low multiplicity of infection, read-out: Peak Activity Conc.
Experimental: Procedure: Enteroviruses rapidly cause cell death, and a cell viability assay was used to examine the cytotoxicity of each compound and to identify the concentration needed to prevent cell death caused by coxsackievirus B3 (CVB3) infection.
Compounds were diluted two-fold and added to wells of 384 well plate. HeLa-RW cells were then added (cytotoxicity testing), or cells and CVB3 were added to provide a low multiplicity of infection to determine concentration of peak activity or 50% maximal concentration. Selectivity index is defined as the 50% Cytotoxic concentration/50% activity concentration

With `Cc1ccccc1NC(=O)c1cc(-c2cccs2)nc2c1cnn2C(C)C` [Compound 1, 1-Isopropyl-N-(2-methylphenyl)-6-(2-thienyl)-1H-pyrazolo [3,4-b]pyridine-4-carboxamide] the “Log10 reduction of virus titer” value (CVB3-H3) was 4.4, the “% of eGFP + cells, 0 Hr” value [1] was 0.0% and the “% of eGFP + cells, 1 Hr” value [1] was 0.0%. The “% of eGFP + cells, 2 Hr” value [1] was 0.0%, the “Inhibition of infected cells” value [1] was 100% and the Selectivity index (coxsackievirus B3 (CVB3)) was 42. It also gave an IC50 (coxsackievirus B3 (CVB3)) of 600 nM and an EC (peak activity) (coxsackievirus B3 (CVB3)) of 1.56 µM.

In the case of `CC(C)n1ncc2c(C(=O)Nc3ccc4c(c3)OCO4)cc(-c3ccccc3)nc21` [Compound 21, N-(1,3-Benzodioxol-5-yl)-1-isopropyl-6-phenyl-1H-pyrazolo [3,4-b]pyridine-4-carboxamide], the “Log10 reduction of virus titer” value (CVB3-H3) is reported as 4.5, the “% of eGFP + cells, 0 Hr” value [1] is reported as 0.0% and the “% of eGFP + cells, 1 Hr” value [1] is reported as 0.0%. The “% of eGFP + cells, 2 Hr” value [1] was 0.0%, the “Inhibition of infected cells” value [1] was 100% and the Selectivity index (coxsackievirus B3 (CVB3)) was 21. It also gave an IC50 (coxsackievirus B3 (CVB3)) of 1190 nM and an EC (peak activity) (coxsackievirus B3 (CVB3)) of 3.13 µM.

For `c1ccc2[nH]c(CN3CCCC3)nc2c1` [Compound 40, 2-(1-Pyrrolidinylmethyl)-1H-benzimidazole], the “Log10 reduction of virus titer” value (CVB3-H3) was 4.0 and the “Inhibition of infected cells” value [1] was 100%.

`OC(c1ccccc1)c1nc2ccccc2n1-c1ccccc1` (centres unmarked) [Compound 41, Phenyl(1-phenyl-1H-benzimidazol-2-yl)methanol] was tested, and the “Log10 reduction of virus titer” value (CVB3-H3) was 4.1 and the “Inhibition of infected cells” value [1] was 100%.

`Nc1nnc(SCc2nc3cc(Cl)ccc3n2Cc2ccccc2)s1` [Compound 43, 5-{[(1-Benzyl-5-chloro-1H-benzimidazol-2-yl)methyl]sulfanyl}-1,3,4-thiadiazol-2-amine] was tested, and the “Log10 reduction of virus titer” value (CVB3-H3) was 0.3 and the “Inhibition of infected cells” value [1] was 91.3%.

With `CCOc1ccc(C(=O)N2CCC(C(=O)c3ccc4c(c3)OCCO4)CC2)cc1` [Compound 44, 2,3-Dihydro-1,4-benzodioxin-6-yl[1-(4-ethoxybenzoyl)-4-piperidinyl] methanone] the “Log10 reduction of virus titer” value (CVB3-H3) was 0.2 and the “Inhibition of infected cells” value [1] was 84.9%.

In the case of `O=C(c1ccc2c(c1)OCCO2)C1CCN(C(=O)c2ccc(-n3cccn3)cc2)CC1` [Compound 46, 2,3-Dihydro-1,4-benzodioxin-6-yl {1-[4-(1H-pyrazol-1-yl)benzoyl]-4-piperidinyl}methanone], the “Log10 reduction of virus titer” value (CVB3-H3) is reported as 1.3 and the “Inhibition of infected cells” value [1] is reported as 82.6%.

`CCCSc1nc2ccccc2c(=O)n1Cc1ccccc1` [Compound 47, 3-Benzyl-2-(propylsulfanyl)-4(3H)-quinazolinone] was tested, and the “Log10 reduction of virus titer” value (CVB3-H3) was 4.1 and the “Inhibition of infected cells” value [1] was 100%.

With `C#CCSc1nc2ccccc2c(=O)n1Cc1ccccc1` [Compound 48, 3-Benzyl-2-(2-propyn-1-ylsulfanyl)-4(3H)-quinazolinone] the “Log10 reduction of virus titer” value (CVB3-H3) was 4.5 and the “Inhibition of infected cells” value [1] was 100%.

In the case of `COc1ccc2nc(C)n3c4ccccc4c(NC(C)=O)c3c2c1` [Compound 49, N-(2-Methoxy-6-methylindolo[1,2-c]quinazolin-12-yl)acetamide], the “Log10 reduction of virus titer” value (CVB3-H3) is reported as 1.0 and the “Inhibition of infected cells” value [1] is reported as 17.2%.

In the case of `Cc1nc2ccccc2c2c(NC(=O)c3cnccn3)c3ccccc3n12` [Compound 50, N-(6-Methylindolo [1,2-c]quinazolin-12-yl)-2-pyrazinecarboxamide], the “Log10 reduction of virus titer” value (CVB3-H3) is reported as 2.5 and the “Inhibition of infected cells” value [1] is reported as 69.9%.

In the case of `O=C(N/N=C1/c2ccccc2-c2nc3ccccc3nc21)c1cccnc1` [Compound 51, N′-[(11Z)-11H-Indeno[1,2-b]quinoxalin-11-ylidene] nicotinohydrazide], the “Log10 reduction of virus titer” value (CVB3-H3) is reported as 0.1 and the “Inhibition of infected cells” value [1] is reported as 1.6%.

For `COc1ccc(CCC2CCN(Cc3cc(=O)n4ccccc4n3)CC2)cc1` [Compound 52, 2-({4-[2-(4-Methoxyphenyl)ethyl]-1-piperidinyl}methyl)-4H-pyrido[1,2-a]pyrimidin-4-one], the “Log10 reduction of virus titer” value (CVB3-H3) was 0.0 and the “Inhibition of infected cells” value [1] was 57.7%.

For `Brc1ccc(-c2csc3ncnc(Sc4nnc(C5CC5)o4)c23)cc1` [Compound 53, 5-(4-Bromophenyl)-4-[(5-cyclopropyl-1,3,4-oxadiazol-2-yl)sulfanyl]thieno [2,3-d]pyrimidine], the “Log10 reduction of virus titer” value (CVB3-H3) was 1.8 and the “Inhibition of infected cells” value [1] was 100%.

With `COc1ccc(-c2csc3ncn(CC(=O)c4ccc5c(c4)OCO5)c(=O)c23)cc1OC` [Compound 54, 3-[2-(1,3-Benzodioxol-5-yl)-2-oxoethyl]-5-(3,4-dimethoxyphenyl) thieno[2,3-d]pyrimidin-4 (3H)-one] the “Log10 reduction of virus titer” value (CVB3-H3) was 3.2 and the “Inhibition of infected cells” value [1] was 87.6%.

`Cc1ccc([S+]([O-])Nc2cccc(C(=O)O)c2)cc1` (centres unmarked) [Compound 55, 3-{[(4-Methylphenyl)sulfinyl]amino} benzoic acid] was tested, and the “Log10 reduction of virus titer” value (CVB3-H3) was 2.5 and the “Inhibition of infected cells” value [1] was 98.4%.

For `O=C(O)c1cccc(NS(=O)(=O)c2ccc(-c3ccccc3)cc2)c1` [Compound 56, 3-[(4-Biphenylylsulfonyl)amino] benzoic acid], the “Log10 reduction of virus titer” value (CVB3-H3) was 0.3 and the “Inhibition of infected cells” value [1] was 85.4%.

In the case of `O=C(c1ccco1)N(Cc1ccccc1)Cc1ccccn1` [Compound 58, N-Benzyl-N-(2-pyridinylmethyl)-2-furamide], the “Log10 reduction of virus titer” value (CVB3-H3) is reported as 2.4 and the “Inhibition of infected cells” value [1] is reported as 91.7%.

`COc1ccc(-c2nc3cnccn3c2NCc2ccc(C)cc2)cc1CO` [Compound 59, (2-Methoxy-5-{3-[(4-methylbenzyl)amino]imidazo[1,2-a]pyrazin-2-yl}phenyl)methanol] was tested, and the “Log10 reduction of virus titer” value (CVB3-H3) was 1.3 and the “Inhibition of infected cells” value [1] was 75.2%.

With `CCC(C)(C)Nc1c(-c2ccc(OC)c(CN3CCOCC3)c2)nc2cnccn12` [Compound 60, 2-[4-Methoxy-3-(4-morpholinylmethyl)phenyl]-N-(2-methyl-2-butanyl) imidazo[1,2-a]pyrazin-3-amine] the “Log10 reduction of virus titer” value (CVB3-H3) was 1.8 and the “Inhibition of infected cells” value [1] was 100%.

For `COc1ccc(-c2nc(C)c(C(=O)Nc3cccc(-c4nnc5n4CCCCC5)c3)s2)cc1` [Compound 61, 2-(4-Methoxyphenyl)-4-methyl-N-[3-(6,7,8,9-tetrahydro-5H-[1,2,4]triazolo [4,3-a]azepin-3-yl)phenyl]-1,3-thiazole-5-carboxamide], the “Log10 reduction of virus titer” value (CVB3-H3) was 1.8 and the “Inhibition of infected cells” value [1] was 96.0%.

With `COc1ccc(/N=c2\oc3ccccc3cc2C(=O)NCC2CCCO2)cc1` (centres unmarked) [Compound 62, (2Z)-2-[(4-Methoxyphenyl)imino]-N-(tetrahydro-2-furanylmethyl)-2H-chromene-3-carboxamide] the “Log10 reduction of virus titer” value (CVB3-H3) was 1.5 and the “Inhibition of infected cells” value [1] was 90.4%.

For `NC(=O)C1CCN(CC(=O)N2N=C3/C(=C/c4cccs4)CCCC3C2c2cccs2)CC1` (centres unmarked) [Compound 63, 1-{2-Oxo-2-[(7E)-3-(2-thienyl)-7-(2-thienylmethylene)-3,3a,4,5,6,7-hexahydro-2H-indazol-2-yl]ethyl}-4-piperidine-carboxamide], the “Log10 reduction of virus titer” value (CVB3-H3) was 4.2 and the “Inhibition of infected cells” value [1] was 100%.

In the case of `COc1ccc(NC(=O)c2nn(Cc3ccccc3)c(=O)c3ccccc23)cn1` [Compound 64, 3-Benzyl-N-(6-methoxy-3-pyridinyl)-4-oxo-3,4-dihydro-1-phthalazine-carboxamide], the “Log10 reduction of virus titer” value (CVB3-H3) is reported as 4.2 and the “Inhibition of infected cells” value [1] is reported as 100%.

With `CCCCNCC(=O)Nc1ccccc1N1CCCCC1` [Compound 65, N^2-Butyl-N-[2-(1-piperidinyl)phenyl] glycinamide] the “Log10 reduction of virus titer” value (CVB3-H3) was −0.4 and the “Inhibition of infected cells” value [1] was 36.2%.

In the case of `CCN(CC)CCNC1CCCc2c1[nH]c1ccc(C)cc21.Cl` (centres unmarked) [Compound 66, N,N-Diethyl-2-[(6-methyl-2,3,4,9-tetrahydro-1H-carbazol-1-yl)amino] ethanaminium chloride], the “Log10 reduction of virus titer” value (CVB3-H3) is reported as 4.4 and the “Inhibition of infected cells” value [1] is reported as 99.6%.

With `NC1=Nc2nc3ccccc3n2C(c2ccc3ccccc3c2)N1` (centres unmarked) [Compound 67, 4-(2-Naphthyl)-1,4-dihydro[1,3,5] triazino[1,2-a]benzimidazol-2-amine] the “Log10 reduction of virus titer” value (CVB3-H3) was 1.9 and the “Inhibition of infected cells” value [1] was 67.7%.

`O=C(CCCc1nc(-c2ccccc2)no1)N1CCN(C2CCCCC2)C(=O)C1` [Compound 69, 1-Cyclohexyl-4-[4-(3-phenyl-1,2,4-oxadiazol-5-yl)butanoyl]-2-piperazinone] was tested, and the “Log10 reduction of virus titer” value (CVB3-H3) was 2.0 and the “Inhibition of infected cells” value [1] was 96.5%.

For `Cl.Cl.OCCN1CCN(CC/C=C2/c3ccccc3Sc3ccc(C(F)(F)F)cc32)CC1` [Compound 70, 2-(4-{(3Z)-3-[2-(Trifluoromethyl)-9H-thioxanthen-9-ylidene]propyl}-1-piperazinyl)ethanol dihydrochloride, reference compound], the “Log10 reduction of virus titer” value (CVB3-H3) was 3.9 and the “Inhibition of infected cells” value [1] was 99.6%.

`Cl.OCCN1CCN(CC/C=C2/c3ccccc3Sc3ccc(Cl)cc32)CC1` [Compound 71, 2-[4-[3-(2-chlorothioxanthen-9-ylidene)propyl]piperazin-1-yl]ethanol hydrochloride, reference compound] was tested, and the “Log10 reduction of virus titer” value (CVB3-H3) was 4.2 and the “Inhibition of infected cells” value [1] was 99.1%.

In the case of `Cl.O[C@@H]1[C@@H](O)C=C2CCN3Cc4cc5c(cc4[C@H]1C23)OCO5` (stereo partly drawn) [Compound 73, (1S,2S,12bS)-2,4,5,7,12b,12c-Hexahydro-1H-[1,3]dioxolo[4,5-j]pyrrolo[3,2,1-de] phenanthridine-1,2-diol hydrochloride (1:1), reference compound], the “Log10 reduction of virus titer” value (CVB3-H3) is reported as 2.8 and the “Inhibition of infected cells” value [1] is reported as 100%.
